The values below come from ChEMBL document CHEMBL4354784, “On the road to structure-based development of anti-virulence therapeutics targeting the type III secretion system injectisome” (Medchemcomm, 2019).

In test [1] the test system is Yersinia pseudotuberculosis. Kind of test: Inhibition of Yersinia pseudotuberculosis serotype 3 T3SS assessed as reduction in YopD protein expression at > 13 uM preincubated for 1 hr at 26 degC and subsequently incubated for 3 hrs at 37 degC by Western blot analysis relative to control. Background: In western blotting, separated proteins are transferred to a membrane and probed.

Test [2] can be described thus: Inhibition of Yersinia pseudotuberculosis serotype 3 T3SS assessed as reduction in YopH protein secretion using p-nitro phenyl phosphat/2-(N-morpholino)ethanesulfonic acid as substrate preincubated for 1 hr at 26 degC and subsequently incubated for 2 hrs at 37 degC followed by addition of substrate and measured after 15 mins.
In test [3] the test system is Yersinia pseudotuberculosis. In words: Inhibition of Yersinia pseudotuberculosis serotype 3 T3SS assessed as reduction in YopD protein secretion at > 13 uM preincubated for 1 hr at 26 degC and subsequently incubated for 3 hrs at 37 degC by Western blot analysis relative to control.
Another test relates to Salmonella enterica. Kind of test: Antimicrobial activity against Salmonella enterica infected in mouse assessed as increasing survival rate on day 9 relative to control. It counts as functional.
Test [4] in a line: Inhibition of Pseudomonas aeruginosa MDM1912 T3SS assessed as reduction in ExoS-BLA fusion protein secretion by measuring hydrolysis of the chromogenic beta-lactamase substrate nitrocefin by colorimetric method.
Test [5] relates to Pseudomonas aeruginosa. In words: Antimicrobial activity against Pseudomonas aeruginosa infected in mouse assessed as increasing survival rate after 6 days (RVB = 20%). It counts as functional.
Test [6] concerns Pseudomonas aeruginosa. In words: Antimicrobial activity against Pseudomonas aeruginosa. Format: functional, organism-based.

Where only a bound is given, the exact number is not on record here.

In the case of `Oc1ccc([C@@H]2c3c(O)cc(O)cc3[C@@H]3c4c(cc(O)cc4[C@H]2[C@@H]2c4cc(O)cc5c4[C@@H](c4cc(O)cc(O)c4[C@H]2c2ccc(O)cc2)[C@H](c2ccc(O)cc2)O5)O[C@H]3c2ccc(O)cc2)cc1`, the inhibition in test [1] and in test [3] was 100% each time. Further, the IC50 (usually the concentration at which inhibition is half-maximal) in test [2] was over 10 µM.
For `Cc1ccc(C(C)C)c(O)c1` [THYMOL], the Survival in the test on Salmonella enterica is on record as 70%.
As to `O=C(N/N=C/c1cc(Br)cc(Br)c1O)c1ccc([N+](=O)[O-])cc1`, the IC50 in test [4] is 0.8 µM.
Take `NCCCNCCCCNCCCNC(=O)c1ccccc1C1=c2cc3c4c(c2Oc2c1cc1c5c2CCCN5CCC1)CCC[N+]=4CCC3`: the Survival in the test with Pseudomonas aeruginosa [5] is reported as 100%. In the test on Pseudomonas aeruginosa [6], it took 10 µM to reach a half-maximal effect (EC50) and the MIC50 (commonly the lowest concentration that inhibits either 50% of growth or 50% of the strains tested, depending on the study) was over 10 µM.
